Results reported in patent US20240246918A1, “COMPOUNDS AND COMPOSITIONS AS EIF4E INHIBITORS AND THE USES THEREOF” (Ribometrix, Inc., priority 2022, published 2024).
Read-outs that look alike come from different tables or passages of the source.

Experiments:
[1] = system: cap-dependent translation in Flp-In-293 reporter cells; test: Cellular cap-dependent translation inhibition assay (dual luciferase assay, DLA; Fluc/Rluc ratio, 24 hours); format: cell-based; conditions: dual luciferase assay, Flp-In-293 reporter cells, 24 hours, Fluc/Rluc ratio, read-out: DLA 205 IC50
[2] = system: COLO 205 colorectal tumor cells; test: Tumor cell viability inhibition assay (CellTiter-Glo 2.0, 72 hours); format: cell-based; conditions: COLO 205 cell viability
Method in brief: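 COLO 205 cells (1500/well, RPMI-1640 + 10% FBS) exposed for 72 h to an 11-point, 4-fold dilution series; cellular ATP read by CellTiter-Glo 2.0 luminescence. Data normalized to DMSO and maximum-inhibition controls; IC50 from 4-parameter curve fit.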

human eIF4E protein = target: T1, human eIF4E protein (Homo sapiens, UniProt P06730); test: Biochemical competitive binding assay (TR-FRET competition, EDA-m7GDP-ATTO-647N probe); conditions: read-out: hEIF4E TR-FRET IC50
T1 construct: purchased Novus NBP-45314
T1 sequence (P06730 whole entry): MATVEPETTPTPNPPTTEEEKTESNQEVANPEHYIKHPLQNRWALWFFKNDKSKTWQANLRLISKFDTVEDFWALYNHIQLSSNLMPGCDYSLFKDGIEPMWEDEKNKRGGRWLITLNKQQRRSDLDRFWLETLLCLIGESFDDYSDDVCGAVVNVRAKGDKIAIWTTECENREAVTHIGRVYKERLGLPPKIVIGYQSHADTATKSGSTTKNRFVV
Method in brief: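 His-tagged human eIF4E (4 nM) was preincubated with Eu-anti-His antibody (2.5 nM) and added to compound (11-point, 4-fold dilutions) for 15 min. Then 5 nM EDA-m7GDP-ATTO-647N was added for 15 min, in HEPES pH 7.5, 100 mM KCl. The 665/620 TR-FRET ratio was normalized to controls, and IC50 was taken from 4-parameter fits.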

Row | IC50 [2] [nM] | IC50 (human eIF4E protein) [nM] | IC50 ([2]; Homo sapiens, COLO 205, 72 h) [nM] | Compound | IC50 [1] [nM] | IC50 ([1]; Homo sapiens, Flp-In-293, 24 h) [nM]
1 | > 20000 | 100 to 500 |  | Cc1nc2c(c(=O)n1CCOc1ccc(Cl)cc1-c1cccc(C(=O)O)c1)CC(N(C)C)CC2 (single isomer, unassigned) [Compound 25] | 1000 to 5000 | 
2 |  | < 100 | < 5000 | CO[C@@H]1CCN([C@H]2CCc3nc(C)n(CCOc4ccc(Cl)cc4-c4cc(C)nc5c(C(=O)O)csc45)c(=O)c3C2)C1 (single isomer, unassigned) [Compound 43] |  | < 1000
3 |  | < 100 | < 5000 | CO[C@H]1CCN([C@H]2CCc3nc(C)n(CCOc4ccc(Cl)cc4-c4cc(C)nc5c(C(=O)O)csc45)c(=O)c3C2)C1 (single isomer, unassigned) [Compound 44] |  | < 1000
4 |  | < 100 | < 5000 | CO[C@H]1CCN([C@@H]2CCc3nc(C)n(CCOc4ccc(Cl)cc4-c4cc(C)nc5c(C(=O)O)csc45)c(=O)c3C2)C1 (single isomer, unassigned) [Compound 48] |  | < 1000
5 |  | < 100 | < 5000 | Cc1cc(-c2cc(Cl)ccc2OCCn2c(C)nc3c(c2=O)CC(N2CC4COCC4C2)CC3)c2scc(C(=O)O)c2n1 (single isomer, unassigned) [Compound 67] |  | < 1000
6 | < 5000 | < 100 |  | Cc1cc(-c2cc(Cl)ccc2OCCn2c(C)nc3c(c2=O)CC(N2CC4COCC4C2)CC3)c2scc(C(=O)NS(C)(=O)=O)c2n1 (single isomer, unassigned) [Compound 89] | < 1000 | 
7 |  | < 100 | < 5000 | Cc1cc(-c2cc(Cl)ccc2OCCn2c(C)nc3c(c2=O)CC(N(C)C2CC(F)(F)C2)CC3)c2scc(C(=O)NS(C)(=O)=O)c2n1 (single isomer, unassigned) [Compound 93] |  | < 1000
8 | < 5000 | < 100 |  | Cc1cc(-c2cc(Cl)ccc2OCCn2c(C)nc3c(c2=O)CC(N(C)C2CC(F)(F)C2)CC3)c2scc(C(=O)NS(C)(=O)=O)c2n1 (single isomer, unassigned) [Compound 94] | < 1000 | 
9 |  | < 100 | 5000 to 20000 | Cc1cc(-c2cc(Cl)ccc2OCCn2c(C)nc3c(c2=O)CC(N(C)Cc2ccncc2)CC3)c2scc(C(=O)O)c2n1 (single isomer, unassigned) [Compound 99] |  | 1000 to 5000
10 |  | < 100 | > 20000 | Cc1cc(-c2cc(Cl)ccc2OCCn2c(C)nc3c(c2=O)CC(N(C)Cc2cc[nH]c(=O)c2)CC3)c2scc(C(=O)O)c2n1 (single isomer, unassigned) [Compound 246] |  | > 5000
11 | > 20000 | < 100 |  | Cc1cc(-c2cc(Cl)ccc2OCCn2c(C)nc3c(c2=O)CC(N(C)Cc2cc[nH]c(=O)c2)CC3)c2scc(C(=O)O)c2n1 (single isomer, unassigned) [Compound 247] | > 5000 | 
12 |  | < 100 | 5000 to 20000 | Cc1cc(-c2cc(Cl)ccc2OCCn2c(C)nc3c(c2=O)CC(N2CCCCC2)CC3)c2scc(C(=O)O)c2n1 (single isomer, unassigned) [Compound 249] |  | < 1000
13 | < 5000 | < 100 |  | Cc1cc(-c2cc(Cl)ccc2OCCn2c(C)nc3c(c2=O)CC(N2CCCCC2)CC3)c2scc(C(=O)O)c2n1 (single isomer, unassigned) [Compound 250] | < 1000 | 
14 |  | < 100 | < 5000 | Cc1cc(-c2cc(Cl)ccc2OCCn2c(C)nc3c(c2=O)CC(N2CCC(F)(F)CC2)CC3)c2scc(C(=O)NS(C)(=O)=O)c2n1 (single isomer, unassigned) [Compound 251] |  | < 1000
15 | 5000 to 20000 | < 100 |  | Cc1sc2c(-c3cc(Cl)ccc3OCCn3c(C)nc4c(c3=O)CC(N(C)CC3CC(F)(F)C3)CC4)cn(C)c(=O)c2c1C(=O)O (single isomer, unassigned) [Compound 252] | 1000 to 5000 | 
16 | > 20000 | 100 to 500 |  | Cc1sc2c(-c3cc(Cl)ccc3OCCn3c(C)nc4c(c3=O)CC(N(C)CC3CC(F)(F)C3)CC4)cn(C)c(=O)c2c1C(=O)O (single isomer, unassigned) [Compound 253] | > 5000 | 
17 | < 5000 | < 100 |  | Cc1cc(-c2cc(Cl)ccc2OCCn2c(C)nc3c(c2=O)CC(N2CCC(F)(F)CC2)CC3)c2scc(C(=O)NS(C)(=O)=O)c2n1 (single isomer, unassigned) [Compound 254] | < 1000 | 
18 |  | < 100 | < 5000 | Cc1cc(-c2cc(Cl)ccc2OCCn2c(C)nc3c(c2=O)CC(N(C)CC2CC(F)(F)C2)CC3)c2scc(C(=O)NS(C)(=O)=O)c2n1 (single isomer, unassigned) [Compound 256] |  | < 1000
19 | < 5000 | < 100 |  | Cc1cc(-c2cc(Cl)ccc2OCCn2c(C)nc3c(c2=O)CC(N(C)CC2CC(F)(F)C2)CC3)c2scc(C(=O)O)c2n1 (single isomer, unassigned) [Compound 259] |  | < 1000
20 |  | < 100 | < 5000 | Cc1cc(-c2cc(Cl)ccc2OCCn2c(C)nc3c(c2=O)CC(N2CCC[C@H](F)C2)CC3)c2scc(C(=O)NS(C)(=O)=O)c2n1 (single isomer, unassigned) [Compound 264] |  | < 1000
21 |  | 500 to 5000 | > 20000 | Cc1nc2c(c(=O)n1CC#Cc1ccc(Cl)cc1-c1ccnc3c(C(=O)NS(C)(=O)=O)csc13)CC(N(C)C)CC2 (single isomer, unassigned) [Compound 266] |  | > 5000
22 | > 20000 | 500 to 5000 |  | Cc1nc2c(c(=O)n1CC#Cc1ccc(Cl)cc1-c1ccnc3c(C(=O)NS(C)(=O)=O)csc13)CC(N(C)C)CC2 (single isomer, unassigned) [Compound 273] | > 5000 | 
23 |  | 100 to 500 | 5000 to 20000 | Cc1cc(-c2cc(Cl)ccc2OCCn2c(C)nc3c(c2=O)CC(N(C)C2(c4ccc(F)cc4)CC2)CC3)c2scc(C(=O)O)c2n1 (single isomer, unassigned) [Compound 280] |  | 1000 to 5000
24 | 5000 to 20000 | 100 to 500 |  | Cc1cc(-c2cc(Cl)ccc2OCCn2c(C)nc3c(c2=O)CC(N(C)C2(c4ccc(F)cc4)CC2)CC3)c2scc(C(=O)O)c2n1 (single isomer, unassigned) [Compound 281] | 1000 to 5000 | 
25 |  | < 100 | < 5000 | Cc1cc(-c2cc(Cl)ccc2OCCn2c(C)nc3c(c2=O)C[C@@H](N2CCC[C@H](F)C2)CC3)c2scc(C(=O)O)c2n1 (single isomer, unassigned) [Compound 282] |  | < 1000
26 |  | < 100 | < 5000 | Cc1cc(-c2cc(Cl)ccc2OCCn2c(C)nc3c(c2=O)C[C@H](N2CCC[C@H](F)C2)CC3)c2scc(C(=O)O)c2n1 (single isomer, unassigned) [Compound 283] |  | < 1000
27 |  | < 100 | 5000 to 20000 | Cc1cc(-c2cc(Cl)ccc2OCCn2c(C)nc3c(c2=O)CC(N(C)C2CC2)CC3)c2scc(C(=O)NS(=O)(=O)c3ccncc3)c2n1 (single isomer, unassigned) [Compound 284] |  | 1000 to 5000
28 | 5000 to 20000 | < 100 |  | Cc1cc(-c2cc(Cl)ccc2OCCn2c(C)nc3c(c2=O)CC(N(C)C2CC2)CC3)c2scc(C(=O)NS(=O)(=O)c3ccncc3)c2n1 (single isomer, unassigned) [Compound 285] | 1000 to 5000 | 
